From publication PMC5412877, “Discovery of a PCAF Bromodomain Chemical Probe” (Angewandte Chemie (International Ed. in English), 2016)
Entries after “also recorded” stand apart in the source; their conditions may differ. Where two headings read alike, the source gives them in different places. Marks after values point to notes of the source that are not given here. One block for each compound: values may come before it.

Tests used:
PCAF Brd [1] = molecular target: T1, PCAF Brd (Homo sapiens, UniProt Q92831); test: Isothermal titration calorimetry (ITC), PCAF Brd; assay type: binding
T1 construct: Human bromodomains were cloned, expressed and purified as previously described; made in house
T1 sequence (Q92831 723-827 limits assumed): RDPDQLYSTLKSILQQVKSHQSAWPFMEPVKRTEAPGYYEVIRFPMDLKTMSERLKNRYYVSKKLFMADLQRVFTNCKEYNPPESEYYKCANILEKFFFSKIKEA
Method: (§1) Isothermal Titration Calorimetry (ITC)
(§2) Experiments were carried out on a Nano-ITC Standard Volume Instrument (TA Instruments). All experiments were carried out at 25 °C in 20 mM HEPES pH 7.5, 150 mM NaCl, 0.5 mM TCEP and 5% glycerol. Protein solutions were buffer exchanged by gel filtration. The titrations were conducted using an initial injection of 2 μL followed by 32 injections of 8 μL. Background dilution heat was substracted from each experiment. Thermodynamic parameters were calculated using ΔG = ΔH-T ΔS = -RTlnKB , where KD = 1/KB. ΔG, ΔH and ΔS are changes in free energy, enathalpy and entropy resepectively. Independent single site binding models were employed in data analysis.
(§3) Supplemental Figure 3. ITC trace of D-Moses and PCAF Brd […]

[2] = molecular target: T2, PCAF‐Brd histone H3.3 interaction (Homo sapiens, UniProt Q92831); test: nanoBRET target engagement assay, PCAF-Brd / histone H3.3 in HEK293 cells; assay type: cell-based; conditions: live HEK293 cells; compounds 5 μM, 18 h
T2 construct: NanoLuciferase fusion of the isolated bromodomain of PCAF; expressed in transfected cells; host or cells: HEK293
T2 sequence (Q92831 723-827 limits assumed): T1 sequence (Q92831 723-827 limits assumed)
Method: page 48: NanoLuciferase Bioluminescent Resonance Energy Transfer (NanoBRET) Assay Methods HEK293 cell (8 x 105) were plated in each well of a 6-well plate and co-transfected with Histone H3.3- HaloTag (NM_002107) and a NanoLuciferase fusion of the isolated bromodomain of PCAF. Twenty hours post-transfection, cells were collected, washed with PBS, and exchanged into media containing phenol red-free DMEM and 4% FBS in the absence (control sample) or the presence (experimental sample) of 100 nM NanoBRET 618 fluorescent ligand (Promega). Cell density was adjusted to 2 x 10^5 cells/ml and then re-plated in a 96-well assay white plate (Corning Costar #3917). […] Readings were performed within 5 minutes using a Glo-MAX Discover instrument (Promega) equipped with 450/8 nm bandpass and 600 nm longpass filters with a 0.3 sec reading setting. A corrected BRET ratio was calculated and is defined as the ratio of the emission at 600 nm/450 nm for experimental samples (i.e. those treated with NanoBRET fluorescent ligand) subtracted by and the emission at 600 nm/450 nm for control samples (not treated with NanoBRET fluorescent ligand). BRET ratios are expressed as milliBRET units (mBU), where 1 mBU corresponds to the corrected BRET ratio multiplied by 1000. […] Compounds were analysed by LC-MS for loss of compound at 0, 5, 15, 30 and 45 minute time points. […]

PCAF Brd [3] = molecular target: T1, PCAF Brd; test: Differential scanning fluorimetry (DSF), PCAF Brd; assay type: binding; conditions: compound concentration 100 μM
GCN5L2 = molecular target: T3, GCN5L2 (Homo sapiens, UniProt Q92830); test: Differential scanning fluorimetry (DSF), GCN5 (GCN5L2) Brd; assay type: binding; conditions: compound 10 μM; for ΔTm at 10 µM: read-out: GCN5L2 ΔTm (°C) (DSF)
T3 construct: made in house
T3 sequence (Q92830 728-832 limits assumed): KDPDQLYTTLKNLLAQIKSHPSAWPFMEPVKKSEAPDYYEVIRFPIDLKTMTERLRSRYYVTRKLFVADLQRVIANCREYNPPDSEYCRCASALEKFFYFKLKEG
Method: (§4) Protein Expression and Purification
(§5) Human bromodomains were cloned, expressed and purified as previously described.[1]
(§6) Differential Scanning Fluorimetry (DSF)
(§7) Thermal melting points were recorded using an Mx3005p Real Time PCR Machine (Stratagene).
(§8) Subject proteins were buffered in 10 mM HEPES at pH 7.5, 500 mM NaCl and assayed in a 96-well […]
(§9) plate at a final concentration of 2 μM in 20 μL volume. Compounds were then added to a final […]
(§10) concentration of 10 μM. SPYRO Orange (Molecular Probes) was used as a fluorescent probe at a […]
(§11) dilution of 1:1000. Excitation and emission filters for the SPYRO-Orange dye were set to 465 nm and […]
(§12) 590 nm, respectively. The temperature was raised with a step of 3 °C/min from 25 °C to 96 °C and […]
(§13) fluorescence readings were taken at each interval. Data was analysed as previously described.[2]
(§14) Bromodomain affinity selectivity panel of (S)-11
(§15) Supplemental Figure 1. DSF Selectivity panel of (S)-11 against 48 human Bromodomains. […]
(§16) ┼Mean ΔTm ± SEM (number of measurements= 2). Compound concentration: 10 μM […]
(§17) (1 picture or pasted object on this page, not shown here)

HGCN5 Brd = molecular target: T4, HGCN5 Brd (Homo sapiens, UniProt Q92830); test: Isothermal titration calorimetry (ITC), human GCN5 Brd; assay type: binding
T4 construct: made in house
T4 sequence (Q92830 728-832 limits assumed): T3 sequence (Q92830 728-832 limits assumed)
Method: as §1, §2
Supplemental Figure 2. ITC trace of L-Moses and PCAF Brd
as §3

GST-PCAFBRD = molecular target: T5, GST-PCAFBRD (Homo sapiens, UniProt Q92831); test: HTRF assay, displacement of biotinylated compound 46 from GST-PCAF Brd; assay type: binding
T5 construct: Final assay concentrations: GST-PCAFBRD (20 nM)
T5 sequence (Q92831 723-827 limits assumed): T1 sequence (Q92831 723-827 limits assumed)
Method: (§18) obtained from 5 healthy donors. PBMC were cultured either with D-Moses or L-Moses at concentrations of 0.1, 1 and 10 μM or with a control (DMSO) for 24 hours. Viability of PBMC were then checked using LIVE/DEAD Fixable Aqua Dead Cell Stain Kit (ThermoFisher Scientific).
(§19) High Throughput Time Resolved Fluorescence Assay (HTRF)
(§20) HTRF assay was carried out using a Cisbio Epigenous kit B (62BDBPEH) using the standard assay protocol with GST-PCAFBRD.[3] Final assay concentrations: GST-PCAFBRD (20 nM), SA-XL665 (62.5 nM), α-GST donor (62.5 nM), compound 46 (500 nM). Ki was calculated using the Cheng-Prussof equation […]
(§21) Recombinant PfGCN5 (bromodomain only) was expressed in E. coli and purified using a previously described system. The protein crystallized with the compound L-45 at 293 K in 0.1M CaCl2, 30% PEG 8k, 0.2 M NH4SO4. The concentrations of the protein sample and the compound were 10 mg/ml […]
(§22) X-ray diffraction data for the crystal was collected at 100 K at the beamline 08ID-1 of the Canadian Macromolecular Crystallography Facility. The dataset was processed using the HKL-2000 suite, and the structure solved using Phaser, a component of the CCP4 suite with molecular replacement model 4QNS. […]

[4] = Metabolic stability in human liver microsomes; assay type: in vitro ADME
Method: (§23) In vitro Metabolism Studies
(§24) Metabolic stability studies were carried out exposing nominated compounds to samples of liver microsomes. Compounds were analysed by LC-MS for loss of compound at 0, 5, 15, 30 and 45 minute time points. The rate of metabolic degradation of compounds was used to calculate CLint, SE CLint, t1/2 (summarised in supplemental table 2.)
(§25) Supplemental Table 4. In vitro metabolic stability of compounds DL-45/DL-Moses and 39 Compound Metbolic Stability (Human) Metbolic Stability (Mouse) […]

[5] = Metabolic stability in mouse liver microsomes; assay type: in vitro ADME
Method: as §23, §24, §25

[6] = Permeability in MDCK-MDR1 cells; assay type: in vitro ADME; conditions: dog, direction not given
[7] = tested on: peripheral blood mononuclear cells (PBMC); test: Cytotoxicity in peripheral blood mononuclear cells (PBMC); assay type: cell-based; conditions: 10 μM for 24 hours
Method: as §18, §19, §20, §21, §22

PCAF Brd [8] = molecular target: T1, PCAF Brd; test: Differential scanning fluorimetry (DSF), PCAF Brd; assay type: binding; conditions: compound concentration 10 μM
Method: as §4, §5, §6, §7, §8, §9, §10, §11, §12, §13, §14, §15, §16, §17

Kinetic solubility = assay type: physicochemical; conditions: kinetic from dmso stock
MDCK‐MDR1 cells = test: Permeability in MDCK-MDR1 cells; assay type: in vitro ADME
[9] = Supplemental Table 3, compound concentration 30 μM, protein concentration 280-320 μM, read-out: PCAF KD (μM) (ITC)
[10] = Table 2, read-out: K D (nM) (ITC) PCAF Brd

- Kd (PCAF Brd [1]; [9]): > 30 µM
- displacement of PCAF‐Brd from H3.3 in nanoBRET assay [2]: no effect
SMILES: Cc1nnc2c3ccccc3c(NC(C)C(c3ccccc3)N(C)C)nn12 (stereo not drawn) [D‐45]
- K D (nM) (ITC) PCAF Brd (PCAF Brd [1]; Table 2): no observable binding; also recorded: Inactive

- Kd (PCAF Brd [1]; [9]): 7.98 µM
- Kd (PCAF Brd [1]; Table 1, read-out: K D [μM] (ITC) PCAF Brd): 8 ± 0.65 µM
- ΔT m [°C] PCAF (DSF) (PCAF Brd [3]): 8.5^[b] °C
SMILES: Cc1nnc2c3ccccc3c(NCCN(C)C)nn12 [Compound 7]

SMILES: Cc1nnc2c3ccccc3c(N[C@@H](C)[C@H](c3ccccc3)N(C)C)nn12 [L‐45]
- GCN5L2 ΔTm (°C) (DSF) (GCN5L2; 10 µM): +3.6 °C
- Kd (PCAF Brd [1]; [10]): 0.126 ± 0.015 µM
- Kd (HGCN5 Brd): 0.55 µM
- Ki (GST-PCAFBRD): 0.047 µM
- displacement of PCAF‐Brd from H3.3 in nanoBRET assay [2]: single digit μM concentration
- half-life ([4]; human, liver microsomes, read-out: t1/2 human liver microsomes): 40 min
- half-life ([5]; mouse, liver microsomes, read-out: t1/2 mouse liver microsomes): 38 min
- Papp ([6]; MDCK-MDR1, first of 59/70, read-out: MDCK-MDR1 permeability, first value of the pair): 590 nm/s
- Papp ([6]; MDCK-MDR1, second of 59/70, read-out: MDCK-MDR1 permeability, second value of the pair): 700 nm/s
- cytotoxicity in PBMC [7]: no observable cytotoxicity

- ΔT m [°C] PCAF (DSF) (PCAF Brd [8]): 0.02 °C
- GCN5L2 ΔTm (°C) (DSF) (GCN5L2): 0.2 °C
- Kd (PCAF Brd [1]; [9]): > 30 µM
SMILES: CC(C)CC(CN(C)C)Nc1nn2c(C(F)(F)F)nnc2c2ccccc12 (stereo not drawn) [Compound 86]

SMILES: Cc1nnc2c3ccccc3c(N[C@@H](C)[C@H](c3ccccc3)N(C)C)nn12 (relative stereo) [Compound 45]
- ΔT m [°C] PCAF (DSF) (PCAF Brd [8]): 7.9 °C
- ΔTm at 10 µM (GCN5L2): 5 °C
- Kd (PCAF Brd [1]; [10]): 0.168 ± 0.027 µM
- microsomal CLint ([4]; human liver microsomes, n 5, read-out: CLint (μL/min/mg protein) human): 35 µL/min/mg
- microsomal CLint ([5]; mouse liver microsomes, n 5, read-out: CLint (μL/min/mg protein) mouse): 37 µL/min/mg
- solubility kinetic (Kinetic solubility): > 200 µM
- efflux in MDCK‐MDR1 cells (MDCK‐MDR1 cells): low efflux
- permeability in MDCK‐MDR1 cells (MDCK‐MDR1 cells): good

- ΔT m [°C] PCAF (DSF) (PCAF Brd [8]): 6.2 °C
- ΔTm at 10 µM (GCN5L2): 2.7 °C
- Kd (PCAF Brd [1]; [10]): 0.223 ± 0.078 µM
SMILES: Cc1nnc2c3ccccc3c(N[C@@H](C)[C@H](c3ccc(Cl)cc3)N(C)C)nn12 [Compound 42]
